Test results: patent US9764046B2, “Labeling composition for intraocular tissue, labeling method of intraocular tissue, and screening method” (CANON KABUSHIKI KAISHA, priority 2008, dated 2017)

How the values were obtained:
[1] = tested on: intraocular tissue (retinal tissue incl. photoreceptor cell layer, vitreous body) of Zebrafish 7-day-old embryo; assay: Staining of intraocular tissue of Zebrafish fry by exposure to staining liquid, ocular tissue section observed by confocal microscope; assay type: in vivo; details: Zebrafish 7 dpf fry, 1 μg/mL, 1 hour exposure, fixed ocular section
[2] = Excitation and fluorescence wavelengths by fluorescence spectrometer FL4500; assay type: physicochemical; details: aqueous solution: 10 mg/mL DMSO solution diluted to 1/500 with purified water (Examples 1 to 94); in nm (unit assumed)

Row | SMILES | λem (fluorescence wavelength) [2] | λex (excitation wavelength) [2] | Staining ability [1] | Stained site [1]
1 | CCN1C(=O)/C(=c2\s/c(=C/c3ccc(N(c4ccccc4)c4ccc5c(c4)C(C)(C)c4ccccc4-5)cc3)c(=O)n2CC(=O)O)SC1=S [Compound 32] | 640 | 558 | ++ | –
2 | CC1(C)c2ccccc2-c2ccc(N(c3ccccc3)c3ccc(/C=C4/SC(=S)N(CC(=O)O)C4=O)cc3)cc21 [Compound 33] | 628 | 512 | ++ | –
3 | COc1ccc(N2c3ccc(/C=C4\SC(=S)N(CC(=O)O)C4=O)cc3[C@@H]3CCC[C@@H]32)cc1 [Compound 34] | 648 | 571 | ++ | –
4 | O=C(O)CN1C(=O)/C(=C\c2ccc3c(c2)[C@@H]2CCC[C@@H]2N3c2ccccc2)SC1=S [Compound 37] | 633 | 531 | +++ | –
5 | O=C(O)CN1C(=O)/C(=C\c2cc(Br)c3c(c2)[C@@H]2CCC[C@@H]2N3c2ccc(Br)cc2)SC1=S [Compound 38] | 609 | 482 | ++ | –
6 | CCN1S/C(=c2\s/c(=C/c3ccc4c(c3)[C@@H]3CCC[C@@H]3N4Cc3ccccc3)c(=O)n2CC(=O)O)SC1=S [Compound 39] | 657 | 576 | ++ | –
7 | CCN1C(=S)S/C(=c2/s/c(=C/c3cc(Br)c4c(c3)[C@@H]3CCC[C@@H]3N4c3ccc(Br)cc3)c(=O)n2CC(=O)O)C1=S [Compound 40] | 671 | 559 | ++ | –
8 | CCN1C(=O)/C(=c2\s/c(=C/c3ccc4c(c3)[C@@H]3CCC[C@@H]3N4c3ccc(OC)cc3)c(=O)n2CC(=O)O)SC1=S [Compound 41] | 679 | 582 | ++ | –
9 | COc1ccc(N2c3ccc(/C=C4/SC(=S)N(CCC(=O)O)C4=O)cc3C3CCCC32)cc1 (centres unmarked) [Compound 44] | 651 | 564 | ++ | –
10 | O=C(O)CCN1C(=O)/C(=C\c2ccc3c(c2)C2CCCC2N3Cc2ccccc2)SC1=S (centres unmarked) [Compound 47] | 611 | 522 | ++ | –
11 | COc1ccc2cc(N3c4ccc(/C=C5\C(=O)N(c6ccc(C(=O)O)cc6)N=C5C)cc4C4CCCC43)ccc2c1 (centres unmarked) [Compound 49] | 649 | 569 | ++ | –
12 | CCOC(=O)CN1C(=O)/C(=C\c2cc(Br)c3c(c2)C2CCCC2N3c2ccc(Br)cc2)SC1=S (centres unmarked) [Compound 50] | 580 | 482 | ++ | –
13 | C=CCN1C(=O)S/C(=c2/s/c(=C/c3ccc4c(c3)C3CCCC3N4c3ccccc3)c(=O)n2CC(=O)OCC)C1=O (centres unmarked) [Compound 51] | 638 | 580 | ++ | –
14 | CCOC(=O)CN1C(=O)/C(=C\c2ccc3c(c2)C2CCCC2N3c2ccccc2)SC1=S (centres unmarked) [Compound 52] | 638 | 580 | ++ | –
15 | CCOC(=O)Cn1c(=O)/c(=C\c2ccc3c(c2)C2CCCC2N3c2ccc3cc(OC)ccc3c2)s/c1=C1/SC(=O)N(CC)C1=O (centres unmarked) [Compound 54] | 647 | 597 | ++ | –
16 | CCN1C(=O)S/C(=c2/s/c(=C/c3ccc4c(c3)C3CCCC3N4c3ccccc3)c(=O)n2CC(=O)O)C1=O (centres unmarked) [Compound 55] | 644 | 502 | ++ | –
17 | O=C(O)CN1C(=O)/C(=C\c2cc(Br)c3c(c2)C2CCCC2N3Cc2ccccc2)SC1=S (centres unmarked) [Compound 56] | 606 | 486 | ++ | –
18 | CCCCCCCCN1C(=O)S/C(=c2/s/c(=C/c3ccc4c(c3)C3CCCC3N4c3ccc(OC)cc3)c(=O)n2CC(=O)OCC)C1=O (centres unmarked) [Compound 58] | 676 | 546 | ++ | –
19 | CCCCCCCCN1C(=O)S/C(=c2/s/c(=C/c3ccc4c(c3)C3CCCC3N4c3ccccc3)c(=O)n2CC(=O)OCC)C1=O (centres unmarked) [Compound 59] | 625 | 581 | ++ | –
20 | CCN1C(=O)/C(=c2\s/c(=C/c3ccc4c(c3)C3CCCC3N4c3ccc(SC)cc3)c(=O)n2CC(=O)O)SC1=S (centres unmarked) [Compound 67] | 699 | 570 | +++ | –
21 | CCCCN1C(=O)/C(=c2\s/c(=C/c3ccc4c(c3)C3CCCC3N4c3ccc(OC)cc3)c(=O)n2CC(=O)OCC)SC1=S (centres unmarked) [Compound 68] | 527 | 450 | ++ | –
22 | CCCCN1C(=O)/C(=c2\s/c(=C/c3ccc4c(c3)C3CCCC3N4c3ccccc3)c(=O)n2CC(=O)OCC)SC1=S (centres unmarked) [Compound 69] | 609 | 653 | ++ | –
23 | CCN1C(=O)/C(=c2\s/c(=C/c3cc(Br)c4c(c3)C3CCCC3N4Cc3ccccc3)c(=O)n2CC(=O)O)SC1=S (centres unmarked) [Compound 73] | 649 | 548 | ++ | –

Further lines, with some results ahead:

Row | λem (fluorescence wavelength) [2] | λex (excitation wavelength) [2] | SMILES | Staining ability [1] | Stained site [1]
24 | 655 | 535 | O=C(O)CN1C(=O)/C(=C/c2ccc3c(c2)[C@@H]2CCC[C@@H]2N3c2ccc(C=C(c3ccccc3)c3ccccc3)cc2)SC1=S [Compound 35] | ++ | –
25 | 586 | 481 | O=C(O)C1=NN(c2ccccc2)C(=O)/C1=C\c1ccc2c(c1)C1CCCC1N2c1ccc(Cc2ccccc2)cc1 (centres unmarked) [Compound 45] | ++ | –
26 | 712 | 568 | COc1ccc(N2c3ccc(/C=c4/s/c(=C5/SC(=O)N(Cc6ccccc6)C5=O)n(CC(=O)O)c4=O)cc3C3CCCC32)cc1 (centres unmarked) [Compound 53] | ++ | –
27 | 671 | 590 | CCCCCCCCN1C(=O)S/C(=c2/s/c(=C/c3ccc4c(c3)C3CCCC3N4c3ccc(C=C(c4ccccc4)c4ccccc4)cc3)c(=O)n2CC(=O)OCC)C1=O (centres unmarked) [Compound 57] | ++ | –
28 | 677 | 560 | COc1ccc(N2c3ccc(/C=C/c4sc5ccccc5[n+]4CC(=O)O)cc3C3CCCC32)cc1.[Br-] (centres unmarked) [Compound 60] | ++ | 2
29 | 636 | 545 | O=C(O)C[n+]1c(/C=C/c2ccc3c(c2)C2CCCC2N3c2ccccc2)sc2ccccc21.[Br-] (centres unmarked) [Compound 61] | ++ | –
30 | 675 | 610 | O=C(O)C[n+]1c(/C=C/c2ccc3c(c2)C2CCCC2N3c2ccc(C=C(c3ccccc3)c3ccccc3)cc2)sc2ccccc21.[Br-] (centres unmarked) [Compound 62] | ++ | 2
31 | 611 | 566 | O=C(O)C[n+]1c(/C=C/c2ccc3c(c2)C2CCCC2N3Cc2ccccc2)sc2ccccc21.[Br-] (centres unmarked) [Compound 63] | ++ | 1
32 | 516 | 401 | COc1ccc2cc(N3c4ccc(/C=C/c5sc6ccccc6[n+]5CC(=O)O)cc4C4CCCC43)ccc2c1.[Br-] (centres unmarked) [Compound 64] | ++ | 2
33 | 657 | 570 | O=C(O)C[n+]1c(/C=C/c2ccc3c(c2)C2CCCC2N3c2ccc(C=C(c3ccccc3)c3ccccc3)cc2)oc2ccccc21.[Br-] (centres unmarked) [Compound 65] | ++ | 1
34 | 671 | 592 | COc1ccc(N2c3ccc(/C=C/C4=[N+](CCC(=O)O)c5ccccc5C4(C)C)cc3C3CCCC32)cc1.[I-] (centres unmarked) [Compound 71] | ++ | –
35 | 669 | 614 | COc1ccc(N2c3ccc(/C=C/C4=[N+](C)c5ccccc5C4(C)C)cc3C3CCCC32)cc1.[Br-] (centres unmarked) [Compound 74] | ++ | 1
36 | 683 | 619 | COc1ccc(N2c3ccc(/C=C/C4=[N+](CCC(=O)O)c5ccc6ccccc6c5C4(C)C)cc3C3CCCC32)cc1.[I-] (centres unmarked) [Compound 75] | ++ | 1
37 | 724 | 674 | CC1(C)C(/C=C/c2ccc3c(c2)C2CCCC2N3c2ccc(C=C(c3ccccc3)c3ccccc3)cc2)=[N+](CCC(=O)O)c2ccc3ccccc3c21 (centres unmarked) [Compound 76] | ++ | –
38 | 668 | 583 | COc1ccc(N2c3ccc(/C=C/c4sc5ccccc5[n+]4CCC(=O)O)cc3C3CCCC32)cc1 (centres unmarked) [Compound 77] | ++ | –
39 | 726 | 598 | O=C(O)CC[n+]1c(/C=C/c2ccc3c(c2)C2CCCC2N3c2ccc(C=C(c3ccccc3)c3ccccc3)cc2)sc2ccccc21.[I-] (centres unmarked) [Compound 78] | ++ | 1
40 | 702 | 567 | CCN1C(=S)S/C(=c2/s/c(=C/c3ccc4c(c3)C3CCCC3N4c3ccc(C=C(c4ccccc4)c4ccccc4)cc3)c(=O)n2CC(=O)O)C1=S (centres unmarked) [Compound 79] | ++ | –
